“Also recorded” adds a separate entry of the source.
How the values were obtained:
[1] = tested on: phosphorylated MAPK; assay: Competitive inhibition of LL-37 on Heregulin-induced MAPK phosphorylation in MCF7 cells (Western blot); assay type: cell-based, human; settings: Heregulin 2 ng/ml
Procedure: Heregulin (2 ng/ml) was added to the breast cancer line MCF7, which produces virtually no LL-37 on its own, together with LL-37 (2 μM) and LL-25 at concentrations as indicated. In the control experiments, the solvent (PBS), or LL-37, LL-25 or heregulin (HRG) were added as the only substrates. The quantitative evaluation of triplicate measurements is shown together with the Western blot of one of the triplicates.
ZR75-1 ells were grown in Optimem and 10% FCS, and plated in 12-well plates at 100 000 cells/well, corresponding 70% confluency. After reattachment, cells were starved for 48 hours in DMEM, no FCS. Test substrate dissolved in 50 μl PBS were added to the medium, and cells were incubated for 20 min. […] The signal was captured in a CCD camera (Fuji, Tokyo, Japan) for 1 min, and evaluated by Image Gauge Software. For quantification, the signals were normalized against the Ponceau S staining that had been scanned in and quantified using the same software.
In a further experiment, Heregulin (2 ng/ml) was added to the breast cancer line MCF7, which produces virtually no LL-37 on its own, together with exogenous LL-37 (2 μM) and LL-25 at concentrations as indicated. […] The quantitative evaluation of triplicate measurements is shown together with the Western blot of one of the triplicates.

[2] = tested on: phosphorylated MAPK 1/2; assay: Heregulin-induced MAPK phosphorylation in ZR75-1 cells (Western blot); assay type: cell-based, human; settings: ZR75-1 cells (LL-37 expressing), Heregulin 2 ng/ml, 20 min
Procedure: ZR75-1 cells were treated for 20 min with Heregulin (2 ng/ml), LL-25 or LL-37 or in combination as indicated. Protein extracts were analysed by Western blot analysis against phosphorylated MAPK.
ZR75-1 ells were grown in Optimem and 10% FCS, and plated in 12-well plates at 100 000 cells/well, corresponding 70% confluency. After reattachment, cells were starved for 48 hours in DMEM, no FCS. Test substrate dissolved in 50 μl PBS were added to the medium, and cells were incubated for 20 min. The stimulation was stopped by washing the cells with ice-cold PBS containing 1 mM NaF, 100 μM Na3VO4, and 2 mM PMSF, and then lysed in 300 μl SDS lysis buffer containing the inhibitors as above. Proteins were separated in an 8% gel, and blotted to nitrocellulose filters according to standard conditions. Filters were reversibly stained with 3% Ponceau S, blocked with 4% NFDM in TBS/0.1% Tween20, and incubated o.n. with the primary antibody. For detection of phosphorylated MAPK 1/2 (pThr 202/pTyr 204), a monoclonal antibody (Cell Signaling Inc) was used at 1/2000. […] The signal was captured in a CCD camera (Fuji, Tokyo, Japan) for 1 min, and evaluated by Image Gauge Software. For quantification, the signals were normalized against the Ponceau S staining that had been scanned in and quantified using the same software.

[3] = Antibacterial assay of synthetic LL-37 peptide
Source text: LL-37 peptide was synthesised and purified by HPLC to a purity of 98% (PolyPeptide Laboratories A/S, Hillerød, Denmark). Biological activity of the peptide was confirmed in an antibacterial assay ^18.

[4] = tested on: ERK1/2; assay: Assay of phosphorylated ERK1/2 in LL-37 treated HaCaT cells (Western blot); assay type: cell-based, human; settings: LL-37 10 μg/ml, 48 hours, 1% or 5% FCS
Procedure: HaCaT cells were seeded at 10% confluence and kept in DMEM with 0.2% FCS for 36 hours. For the next 48 hours, cells were cultured in DMEM with 1% or 5% FCS respectively, and in presence or absence of LL-37 at 10 μg/ml, with daily changes of medium. EGF at 10 ng/ml served as positive control. The expression of phosphorylated ERK 1/2 was evaluated by Western blot analysis with a mouse monoclonal antibody (Cell Signaling Technology, Beverly Mass.).

[5] = tested on: HaCaT cells; assay: LL-37 peptide treatment of epithelial cells, proliferation by [3H]-Thymidine incorporation; assay type: cell-based, human; settings: serum starved 72 hours, LL-37 10 μg/ml, DMEM+5% FCS, versus non treated control
Procedure: A spontaneously immortalised human keratinocyte cell line (HaCaT) ^19 was cultured in DMEM (Dulbecco's modified Eagle's medium, Gibco BRL, Life Technologies, Scotland) supplemented with 10% FCS (fetal calf serum, Hy-Clone, Boule Nordic AB Huddinge, Sweden) and antibiotics (PEST=penicillin 50 U/l and streptomycin […], Gibco BRL). Cells were harvested at 70% confluence and seeded in 96-well plates, 2000 cells in 100 μl medium (DMEM+10% FCS and PEST). After 12 hours, medium was changed to serum free medium (DMEM+PEST) and cells were synchronized in G0/G1 by serum starvation for 72 hours and then treated with 100 μl of medium (DMEM+5% FCS+PEST) containing synthetic biologically active LL-37 peptide at 10 μg per ml. Cells treated with only DMEM+5% FCS and PEST served as control. The experiments were performed in quadruplicates. Cell proliferation was evaluated by [^3H]-Thymidine incorporation. Cells were treated with 1 μCi/well of [^3H]-Thymidine (20.00 Ci/mmol, Perkin Elmer Life Sciences Inc. Boston, Mass.) during 12 hours and harvested (Harvester 96, Tomtec, Orage, Conn.) onto a glass fiber filter (Wallac Oy Turku, Finland). The incorporation of [^3H]-Thymidine was determined using a liquid scintillation counter (Microbeta Pluss, Wallac Sveriges AB). The experiment was repeated twice in 6 replicates.

[6] = tested on: HaCaT cells; assay: Pertussis toxin assay (LL-37 induced HaCaT cell proliferation); assay type: cell-based, human; settings: pertussis toxin 20 ng/ml preincubated 24 h before LL-37 at 5 or 10 μg per ml, data not shown
Procedure: To assess the involvement of FPRL1 in mediating the stimulation of epithelial cell proliferation induced by hCAP18/LL-37, HaCaT cells were treated with the G-protein-coupled receptor inhibitor pertussis toxin. Cells were preincubated with pertussis toxin (Sigma-Aldrich, Switzerland) 24 h before the LL-37 treatment in a final toxin concentration of 20 ng/ml. Medium was changed 48 hours after cell seeding and the HaCaT cells were treated with 100 μl of medium (DMEM+5% FCS and PEST) containing synthetic biologically active LL-37 peptide at 5 or 10 μg per ml respectively. Cells treated with only DMEM+5% FCS and PEST served as control.

LLGDFFRKSKEKIGKEFKRIVQRIK (listed as Homo sapiens) [LL-25, N-terminal 25 amino acids of the C-terminal LL-37 peptide derived from human cathelicidin antimicrobial protein hCAP18]
blocking of the endogenous LL-37 contribution to MAPK activation through HRG [1]: can significantly be blocked by LL-25
inhibition of LL-37 on Heregulin-induced MAPK phosphorylation ([1]; exogenous LL-37 2 μM, LL-25 at varied concentrations): competitive and highly efficient inhibitor to LL-37, even at 10% of the concentration of LL-37
effect on MAPK phosphorylation through Heregulin [2]: inhibits MAPK phosphorylation

LLGDFFRKSKEKIGKEFKRIVQRIKDFLRNLVPRTES (listed as Homo sapiens) [LL-37, C-terminal peptide of human cathelicidin antimicrobial protein hCAP18; synthesised, HPLC purity 98%]
biological activity in antibacterial assay [3]: confirmed
activation of ERK1/2 (phosphorylated ERK1/2) [4]: no significant activation of ERK1/2
cell proliferation ([3H]-Thymidine incorporation) [5]: significantly increased cell proliferation; also recorded: significant increase in cell proliferation

pertussis toxin
suppression of LL-37 stimulated proliferation by pertussis toxin pretreatment [6]: approximately 50%

— patent publication US20100056431A1, “MEDICAL USES” (priority 2006, published 2010)
